# Reference: patent EP1463487B1, “LIPOSOMAL DELIVERY OF VITAMIN E BASED COMPOUNDS” (RESEARCH DEVELOPMENT FOUNDATION, priority 2001, dated 2003)
# Entries after “also recorded” stand apart in the source; their conditions may differ.
# Experiments:
# [1] = tested on: proliferation biomarker KI-67; assay: KI-67 immunohistochemistry of tumor sections (cell proliferation); format: in vivo, Balb/c mice; conditions: transplantable syngeneic mouse mammary cancer model, in comparison to controls
# 66 cl.4-GFP cells [2] = assay: Apoptosis by morphological evaluation of DAPI-stained nuclei; format: cell-based, mouse; conditions: for apoptosis: three days
# [3] = tested on: Poly (ADP-Ribose) Polymerase (PARP); assay: Western immunoblot detection of PARP cleavage fragment; format: cell-based, mouse; conditions: 48 hours
# Experimental: Poly (ADP-Ribose) Polymerase cleavage was analyzed as an alternate method for detecting apoptosis. 66 cl.4-GFP cells were treated as described above for the DAPI assay. Following the PBS wash, cells were suspended in lysis buffer (1X PBS, 1% Nonidet P-40, 0.5% sodium deoxycholate, 0.1% sodium dodecyl sulfate (SDS), 1 µg/ml leupeptin, 1 µg/ml aprotinin, 1mM dithiothreitol (DTT), 2 mM sodium orthovanadate, 10 µg/ml phenylmethylsulfonyl fluoride (PMSF)) for 30 min at 4°C, vortexed, and supernatants collected by centrifugation at 15,000 X g for 20 min. Protein concentrations were determined using the Bio-Rad (Bradford) protein assay (Bio-Rad Laboratories, Hercules, CA), and samples (100 µg/lane) resolved on 7.5% SDS-polyacrylamide gels electrophoresed under reducing conditions.
# Proteins were electroblotted onto a nitrocellulose membrane (0.2 µM pore Optitran BA-S-supported nitrocellulose; Schleicher and Schuell, Keene, NH). After transfer, membranes were blocked with blocking buffer [25 mM Tris-HCl (pH 8.0), 125 mM NaCl, 0.5% Tween-20, and 5% non-fat dry milk] for 45 min at room temperature. Immunoblotting was performed using 1 µg of primary rabbit anti-human Poly (ADP-Ribose) Polymerase antibody [PARP (H-250), Santa Cruz Biotechnology, Santa Cruz, CA], and horseradish peroxidase-conjugated goat anti-rabbit immunoglobulin was used as the secondary antibody (Jackson Immunoresearch Laboratory, West Grove, PA) at a 1:3,000 dilution. Horseradish peroxidase-labeled bands from washed blots were detected by enhanced chemiluminescence (Pierce, Rockford, IL) and autoradiography (Kodak BioMax film; Rochester, NY).
# 66 cl.4-GFP cells [4] = assay: Colony-forming assay; format: cell-based, mouse; conditions: 10 days
# Experimental: 66 cl.4-GFP cells were seeded at 600 cells per 35 X 1 0 mm tissue culture plate (Nunclon, Rochester, NY) and allowed to adhere over night at 37° C. […] Treatments were left on the cells for 10 days without change of media. After 10 days, media were removed and plates were washed with PBS three times. Cells were stained for 30 min with 1% methylene blue in PBS and colonies > 0.5 mm manually counted.
# [5] = Serum and tissue levels of α-TEA after liposomal aerosol treatment (HPLC); format: in vivo, balb/c mice; conditions: aerosol 5 mg/mouse over 30 minutes
# Experimental: Tumors were removed during necropsy and half of each tumor was quick frozen in liquid nitrogen then stored at -70°C until HPLC analyses were performed. Tumors were processed for HPLC analyses by homogenization and hexane extraction of lipids. Briefly, weighed tumors were placed in 5 ml disposable conical-bottom tubes (Sarstedt, Newton, NC) along with 5-7 Kimble solid glass beads (4mm), 1 ml 1% SDS in water, 1-2 ml 100% ethanol and 1 ml hexane. Samples were then mixed using a Crescent Wig-L-Bug (model 3110B Densply International, Elgin, IL) twice for 1 min each. Samples were then centrifuged for 5 min at 1,000 rpm, and the organic layer collected, the aqueous layer was mixed with hexane again, vortexed, centrifuged, and processed twice more before the organic layer was dried down under nitrogen. Samples were run immediately. Reverse phase HPLC analyses with fluorometric detection of the tocopherol ether analog were conducted as described by Tirmenstein, M.A., et al. (23).
# Eight mice are treated via pulmonary aerosol delivery with 40mg of α-TEA (5 mg/mouse) in 6 ml liposomes. The mice inhaled the aerosol over a period of 30 minutes until delivery was complete. Mice are sacrificed 0, 2, 6, or 24 hours after the treatment ended. Serum and tissue levels of α-TEA are determined by HPLC analyses (Fig. 7).
# 66 cl.4-GFP cells [6] = assay: Fluorescent lung micrometastases of 66 cl.4-GFP tumors in Balb/c mice; format: in vivo; conditions: for Inhibition (%) Lung Metastases: Liposomal; for numbers of micrometastases (± S. E.): α-TEA EtOH/peanut oil by gavage 5 mg/day
# Text: (§1) Metastastic lesions in the five lung lobes were counted visually at time of sacrifice. Fluorescent green micro-metastatic cancer cell colonies in the left lung lobe and lymph nodes were counted using a Nikon fluorescence microscope (TE-200) with a 20 x objective (200 x magnification) and Image-Pro Plus (version 4.1; Media Cybernetics, Silver Spring, MD) software associated with the microscope. Fluorescent lesions were separated into three size grouping: <5 µm , 5-10 µm and >10 µm.
# (§2) At sacrifice, the left lung lobe of each mouse of flash frozen and saves for detection of GFP expressing micrometatstic lesions via fluorescent microscopy.
# 66 cl.4-GFP cells [7] = assay: Fluorescent lymph node micrometastases of 66 cl.4-GFP tumors in Balb/c mice; format: in vivo
# Text: as §1, §2
# [8] = tested on: A2780 cisplatin-sensitive cell line; assay: Apoptosis of A2780 ovarian cancer cells in culture; format: cell-based, human; conditions: treated in culture with α-TEA
# [9] = tested on: cp-70 human ovarian cancer cells; assay: Apoptosis of cp-70 ovarian cancer cells in culture; format: cell-based; conditions: treated in culture with α-TEA
# 66 cl.4-GFP cells [10] = assay: Tumor growth of 66 cl.4-GFP mammary tumor cells implanted in Balb/c mice; conditions: for mean tumor volume reduced in comparison to aerosol control: liposomal α-TEA/aerosol daily
# Experimental: 66 cl.4-GFP cells were harvested by trypsinization, centrifuged, resuspended in McCoy's media, containing no supplements at a density of 2 X 10^5/100µl. Mice were injected in the inguinal area at a point equal distance between the 4th and 5th nipples on the right side using a 23 gauge needle.
# 50 mice were assigned (10 per group) to aerosol treatment, aerosol control, oral treatment, oral control, or to the no treatment group so that the average tumor volume for all groups were closely matched. […] Tumors were measured using calipers every other day, and volumes were calculated using the formula: volume (mm^3) = [width (mm)^2 X length (mm)] /2. Body weights were determined weekly.
# Balb/c mice were injected with 200,000 66 cl.4 GFP cells subcutaneous in the mammary fat pad area between the 4th and 5th nipple on the right side of the body.
# Mice are injected with 200,000 66cl.4 GFP murine mammary tumor cells as described on day 0. Treatments are initiated on day 9 when tumors reached 1-3 mm in size. […] Data represent the mean +/- Standard Error (SE), N = 10 mice for control and treatment groups.
# Balb/c mice were injected s. c. with 2 X 10^5 66 cl.4-GFP cells in the inguinal area between the 4th and 5th nipple on the right side of the body. When tumors reached 2 x 2-4 x 4 mm (9 days after tumor injection), mice were placed into 5 groups ((Group 1: untreated control, Group 2: liposome/aerosol control, Group 3: liposomal α-TEA aerosol treatment, Group 4: peanut oil/gavage control, Group 5: α-TEA in peanut oil/gavage treatment) of 10 mice/group) such that the mean tumor volume of each group was closely matched. Daily treatments were initiated on day 9 after tumor injection.
# Balb/c mice were injected with 200,000 66 cl.4 GFP cells subcutaneous in the mammary fat pad area between the 4th and 5th nipple on the right side of the body. […] Animals were treated with α-TEA in liposome, vitamin E succinate in liposome, or control liposome alone via aerosol, 7 days per week, for 21 days. Animals were given 75 mg compound via nebulization per day such that each animal received 36 µg compound per day.
# The size of the tumors, 9 - 21 days after injection of 200,000 66 cl.4 GFP cells between the 4th and 5th nipple on the right side of each mouse, is determined. Treatments are initiated on day 9 after tumor inoculation. Each group consists of n=10 +/- SE. Gavage Treatment = Treatments of 5 mg of α-TEA in ethanol and peanut oil (0.1 ml volume) are administered daily starting on day 9 after tumor inoculation and continuing through day 21. Gavage Control = Mice received peanut oil and ethanol alone (0.ml volume)/daily, starting on day 9 after tumor inoculation and continuing through day 21. Data (tumor size) are depicted as the mean +/- standard error for days 9, 11, 13, 15, 17, 19, and 21.
# Balb/c mice were injected with 200,000 66 cl.4 GFP cells subcutaneous in the mammary fat pad area between the 4th and 5th nipple on the right side of the body. […] Animals were treated with α-TEA in liposome, vitamin E succinate in liposome, or control liposome alone via oral gavage, 2 times per day, 7 days per week, for 21 days. Animals were given a total of 6 mg compound per day.
# [11] = Aerosol, in nebulizer per mouse: α-TEA 5 mg/d, 9NC 2 µg/d, combination 5 mg+2µg/d
smiles,measurement,setting,value
"Cc1c(C)c2c(c(C)c1OCC(=O)O)CC[C@@](C)(CCC[C@H](C)CCC[C@H](C)CCCC(C)C)O2 [α-TEA, 2,5,7,8-tetramethyl-(2R-(4R,8R,12-trimethyltridecyl)chroman-6-yloxy) acetic acid]",mean values of the proliferation biomarker KI-67 reduced,[1],56%
same,apoptosis,66 cl.4-GFP cells [2]; 2.5 µg/ml,5%
same,apoptosis,66 cl.4-GFP cells [2]; 5 µg/ml,6%
same,apoptosis (time course),"66 cl.4-GFP cells [2]; 10 µg/ml, 2 days",20%
same,apoptosis (time course),"66 cl.4-GFP cells [2]; 10 µg/ml, 3 days",35%
same,apoptosis (time course),"66 cl.4-GFP cells [2]; 10 µg/ml, 4 days",47%
same,apoptosis (time course),"66 cl.4-GFP cells [2]; 10 µg/ml, 5 days",58%
same,apoptosis,66 cl.4-GFP cells [2]; 10 µg/ml,34%
same,apoptosis,66 cl.4-GFP cells [2]; 20 µg/ml,50%
same,84 kDa cleavage fragment of PARP,[3]; 5 µg/ml,only intact PARP protein was detected
same,84 kDa cleavage fragment of PARP,[3]; 10 µg/ml,evident
same,84 kDa cleavage fragment of PARP,[3]; 20 µg/ml,evident
same,colonies (average ± S. D.),66 cl.4-GFP cells [4]; 1.25 µg/ml,98 ± 20 colonies
same,colonies (average ± S. D.),66 cl.4-GFP cells [4]; 2.5 µg/ml,21 ± 6 colonies
same,colonies,66 cl.4-GFP cells [4]; 5 µg/ml,No colonies formed
same,colonies,66 cl.4-GFP cells [4]; 10 µg/ml,No colonies formed
same,inhibition at 1.25 µg/mL,"66 cl.4-GFP cells [4]; Mus musculus, 240 h, 1.25 µg/ml, compared to EtOH control, read-out: decreased colony formation",30%
same,inhibition at 2.5 µg/mL,"66 cl.4-GFP cells [4]; Mus musculus, 240 h, 2.5 µg/ml, compared to EtOH control, read-out: decreased colony formation",85%
same,inhibition at 5 µg/mL,"66 cl.4-GFP cells [4]; Mus musculus, 240 h, 5 µg/ml, compared to EtOH control, read-out: decreased colony formation",100%
same,serum and tissue levels of α-TEA,[5]; 0 hours after treatment ended,found only in the stomach tissue
same,serum and tissue levels of α-TEA,[5]; 2 hours after treatment ended,present in the serum and stomach
same,serum and tissue levels of α-TEA,[5]; 6 hours after treatment ended,present in the liver and stomach
same,serum and tissue levels of α-TEA,[5]; 24 hours after treatment ended,present in the liver and stomach
same,Inhibition (%) Metastases Lung,66 cl.4-GFP cells [6]; [11],71%
same,Inhibition (%) Lung Metastases (number of lung tumor micrometastases reduced),"66 cl.4-GFP cells [6]; EtOH/P Oil, Gavage, 5 mg/d",62%
same,Inhibition (%) Lung Metastases,"66 cl.4-GFP cells [6]; Aerosol, 5 mg/d, in comparison to aerosol control",81%
same,Inhibition (%) Lung Metastases,"66 cl.4-GFP cells [6]; Gavage, 3 mg/2Xd",59%
same,micrometatstatic lung lesions,"66 cl.4-GFP cells [6]; liposomal formulation via gavage, 6 mg compound per day, 21 days, left lung lobe",21.5 /lung
same,mean number of micrometastases (± S. E.),"66 cl.4-GFP cells [6]; liposomal α-TEA/aerosol, left lung lobe, N= 8",11.4 ± 3.5
same,numbers of micrometastases (± S. E.),66 cl.4-GFP cells [6]; size 5-10 µm,11.3± 1.8
same,numbers of micrometastases (± S. E.),66 cl.4-GFP cells [6]; size < 5 µm,6.8±1.5
same,numbers of micrometastases (± S. E.),66 cl.4-GFP cells [6]; size >10 µm,3.1±1.2
same,Inhibition (%) Metastases Lymphnode,66 cl.4-GFP cells [7]; [11],94%
same,Inhibition (%) Metastases Lymphnode,"66 cl.4-GFP cells [7]; Liposomal, Aerosol, 5 mg/d",94%
same,Inhibition (%) Metastases Lymphnode,"66 cl.4-GFP cells [7]; Liposomal, Gavage, 3 mg/2Xd",56%
same,average micrometastatic lesions in lymph nodes,"66 cl.4-GFP cells [7]; liposome via gavage, 6 mg compound per day, 21 days",3.1 ±0.8
same,apoptosis,[8],undergo apoptosis
same,apoptosis,[9],undergo apoptosis
same,tumor size at the inoculation site versus gavage control,66 cl.4-GFP cells [10]; 5 mg/day/mouse α-TEA in ethanol and peanut oil by gavage,no significant differences in tumor weights; also recorded: did not differ
same,Inhibition (%) Tumor Growth,66 cl.4-GFP cells [10]; [11],65%
same,Inhibition (%) Tumor Growth,"66 cl.4-GFP cells [10]; EtOH/P Oil, Gavage, 5 mg/d",0%
same,Inhibition (%) Tumor Growth,"66 cl.4-GFP cells [10]; Liposomal, Aerosol, 5 mg/d",70%
same,Inhibition (%) Tumor Growth,"66 cl.4-GFP cells [10]; Liposomal, Gavage, 3 mg/2Xd",70%
same,size of tumors less than aerosol only control group,"66 cl.4-GFP cells [10]; aerosol α-TEA liposomes 5 mg/mouse daily, sacrifice day 25, 16 days after treatment initiation",61%
same,mean tumor volume reduced in comparison to aerosol control,66 cl.4-GFP cells [10]; day 9 of treatment,23%
same,mean tumor volume reduced in comparison to aerosol control,66 cl.4-GFP cells [10]; day 11 of treatment,41%
same,mean tumor volume reduced in comparison to aerosol control,66 cl.4-GFP cells [10]; day 13 of treatment,50%
same,mean tumor volume reduced in comparison to aerosol control,66 cl.4-GFP cells [10]; day 15 of treatment,67%
same,mean tumor volume reduced in comparison to aerosol control,66 cl.4-GFP cells [10]; day 17 of treatment,61%
same,reduced tumor growth,"66 cl.4-GFP cells [10]; liposome aerosol, 36 µg compound per day, 21 days, day 15",64%
same,reduced tumor growth,"66 cl.4-GFP cells [10]; liposome aerosol, 36 µg compound per day, 21 days, day 17",76%
same,reduced tumor growth,"66 cl.4-GFP cells [10]; liposome aerosol, 36 µg compound per day, 21 days, day 19",69%
same,reduced tumor growth,"66 cl.4-GFP cells [10]; liposome aerosol, 36 µg compound per day, 21 days, day 21",67%
same,reduced tumor growth,"66 cl.4-GFP cells [10]; liposome gavage, 6 mg compound per day, 2 times per day, day 15",85%
same,reduced tumor growth,"66 cl.4-GFP cells [10]; liposome gavage, 6 mg compound per day, 2 times per day, day 17",85%
same,reduced tumor growth,"66 cl.4-GFP cells [10]; liposome gavage, 6 mg compound per day, 2 times per day, day 19",80%
same,reduced tumor growth,"66 cl.4-GFP cells [10]; liposome gavage, 6 mg compound per day, 2 times per day, day 21",70%
